Laboratory results as given in US9518041B2, “(+)-5-(3,4-difluorophenyl)-5-[(3-methyl-2-oxopyridin-1(2H)-yl)methyl]imidazolidine-2,4-dione and drug containing same” (KAKEN PHARMACEUTICAL CO., LTD., priority 2013, dated 2016).

Assay: Solubility test in organic solvents (propylene glycol, butylene glycol)
Format: physicochemical
Conditions: organic solvent or mixture, thermodynamic from solid
Protocol: Under room temperature conditions, in a 0.5 mL polypropylene tube, (+)-5-(3,4-difluorophenyl)-5-[(3-methyl-2-oxopyridin-1(2H)-yl)methyl]imidazolidine-2,4-dione and (±)-5-(3,4-difluorophenyl)-5-[(3-methyl-2-oxopyridin-1(2H)-yl)methyl]imidazolidine-2,4-dione measured in advance for a suitable amount were prepared, respectively. In each tube, solvent (Propylene glycol (PG) or butylene glycol (BG)) was added with various amounts, e.g. 10 times, 20 times or 100 times amount of the test compound, and stirred with a vortex mixer. With a table ultrasonic washer set at 37° C., ultrasonication treatment was given for 10 minutes; after warming for an hour in a thermostat chamber, each were kept standing for 24 hours at room temperature. The test solutions were observed by sight to evaluate the states in accordance with the determination criterion given below.
Determination criterion consisted of the following two categories:
“Soluble”: Test compound dissolved; no undissolved substances confirmed by visual observation.
“Insoluble”: Test compound remains undissolved; undissolved substances confirmed by visual observation.

## Cc1cccn(CC2(c3ccc(F)c(F)c3)NC(=O)NC2=O)c1=O (single isomer, unassigned; (+)) [(+)-5-(3,4-difluorophenyl)-5-[(3-methyl-2-oxopyridin-1(2H)-yl)methyl]imidazolidine-2,4-dione]
  solubility at 24 h: > 10000 µg/mL
